Data reported in ChEMBL document CHEMBL5665443, “Enzyme Inhibitor Single Concentration assay results for EUbOPEN Chemogenomics Library” (2024).
Where “and” joins values, the source holds several entries; their conditions need not be identical. Equal entries are not always repeated.

Legend:
[1] = target: Methyl-CpG-binding domain protein 4 (Homo sapiens) (UniProt O95243); details: Compound Concentration 10.0 uM, Hit No;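 note: MBD4 activity read as fluorescence at 594 nm from cleavage and release of a quenched duplex DNA oligonucleotide, with APE1 coupled to incise the strand and raise turnover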
Description: Inhibition of MBD4 by quantifying inhibition of MBD4-mediated cleavage and dissociation of quenched duplex DNA oligonucleotides, measured as fluorescence at 594 nm. To generate a functional strand incision and increase turn-over this assay is coupled to APE1.

[2] = target: T1, Adenine DNA glycosylase (Homo sapiens) (UniProt Q9UIF7); details: Compound Concentration 10.0 uM, Hit No;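 note: human MUTYH activity read as 594 nm fluorescence from cleavage and release of a quenched DNA duplex, coupled with APE1 for strand incision, lower signal meaning inhibition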
T1 sequence (whole entry): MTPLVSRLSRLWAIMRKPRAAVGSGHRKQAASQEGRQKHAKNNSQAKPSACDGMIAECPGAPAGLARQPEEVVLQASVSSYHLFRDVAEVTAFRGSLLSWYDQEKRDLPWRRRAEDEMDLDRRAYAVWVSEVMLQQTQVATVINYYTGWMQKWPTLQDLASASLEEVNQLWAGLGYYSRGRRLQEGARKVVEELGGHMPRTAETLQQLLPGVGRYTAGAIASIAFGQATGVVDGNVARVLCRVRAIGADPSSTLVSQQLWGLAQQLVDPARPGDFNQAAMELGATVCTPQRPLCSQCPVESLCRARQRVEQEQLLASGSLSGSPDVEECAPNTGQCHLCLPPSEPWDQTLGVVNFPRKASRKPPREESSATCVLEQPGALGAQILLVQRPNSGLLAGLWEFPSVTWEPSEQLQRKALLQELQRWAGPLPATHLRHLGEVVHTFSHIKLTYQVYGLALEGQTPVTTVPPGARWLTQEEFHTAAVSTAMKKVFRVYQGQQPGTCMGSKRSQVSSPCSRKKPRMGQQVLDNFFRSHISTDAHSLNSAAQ
Description: Inhibition of MUTYH by quantifying inhibition of MUTYH-mediated cleavage and dissociation of quenched duplex DNA oligonucleotides, measured as fluorescence at 594 nm. To generate a functional strand incision and increase turn-over this assay is coupled to APE1.

[3] = target: N-glycosylase/DNA lyase (Homo sapiens) (UniProt O15527); details: Compound Concentration 10.0 uM;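 note: OGG1 cleavage of a quenched duplex DNA oligonucleotide, coupled to APE1 for strand incision, read as fluorescence at 594 nm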
Description: Inhibition of OGG1 by quantifying inhibition of OGG1-mediated cleavage and dissociation of quenched duplex DNA oligonucleotides, measured as fluorescence at 594 nm. To generate a functional strand incision and increase turn-over this assay is coupled to APE1.

[4] = target: T2, Endonuclease 8-like 2 (Homo sapiens) (UniProt Q969S2); details: Compound Concentration 10.0 uM, Hit No;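 note: fluorescence at 594 nm reports NEIL2 cutting and release of a quenched double-stranded DNA oligo substrate, reduced signal read as inhibition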
T2 sequence (whole entry): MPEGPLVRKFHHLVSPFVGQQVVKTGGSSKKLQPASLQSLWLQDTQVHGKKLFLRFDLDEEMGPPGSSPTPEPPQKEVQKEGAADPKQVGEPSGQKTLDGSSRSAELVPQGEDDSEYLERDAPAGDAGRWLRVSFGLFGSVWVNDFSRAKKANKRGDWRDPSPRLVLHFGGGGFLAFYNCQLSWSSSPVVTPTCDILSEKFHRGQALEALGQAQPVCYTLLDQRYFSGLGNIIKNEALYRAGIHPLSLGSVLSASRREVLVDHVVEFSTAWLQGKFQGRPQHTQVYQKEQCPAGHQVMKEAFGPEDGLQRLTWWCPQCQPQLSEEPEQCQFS
Description: Inhibition of NEIL2 by quantifying inhibition of NEIL2-mediated cleavage and dissociation of quenched duplex DNA oligonucleotides, measured as fluorescence at 594 nm.

[5] = target: T3, Single-strand selective monofunctional uracil DNA glycosylase (Homo sapiens) (UniProt Q53HV7); details: Compound Concentration 10.0 uM, Hit No;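 note: enzymatic SMUG1 assay coupled with APE1, reading fluorescence at 594 nm released when a quenched double-stranded DNA oligonucleotide substrate is cleaved and separated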
T3 sequence (whole entry): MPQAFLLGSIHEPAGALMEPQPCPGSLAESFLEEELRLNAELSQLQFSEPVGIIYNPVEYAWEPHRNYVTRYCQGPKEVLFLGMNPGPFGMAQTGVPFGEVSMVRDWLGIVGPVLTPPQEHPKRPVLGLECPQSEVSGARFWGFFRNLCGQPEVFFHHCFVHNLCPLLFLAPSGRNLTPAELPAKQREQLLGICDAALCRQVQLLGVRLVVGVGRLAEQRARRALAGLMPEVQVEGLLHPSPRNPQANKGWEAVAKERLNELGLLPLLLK
Description: Inhibition of SMUG1 by quantifying inhibition of SMUG1-mediated cleavage and dissociation of quenched duplex DNA oligonucleotides, measured as fluorescence at 594 nm. To generate a functional strand incision and increase turn-over this assay is coupled to APE1.

[6] = target: G/T mismatch-specific thymine DNA glycosylase (Homo sapiens) (UniProt Q13569); details: Compound Concentration 10.0 uM;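 note: human TDG cleavage of quenched duplex DNA oligonucleotides coupled to APE1, strand release read as fluorescence at 594 nm, inhibition of TDG activity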
Description: Inhibition of TDG by quantifying inhibition of TDG-mediated cleavage and dissociation of quenched duplex DNA oligonucleotides, measured as fluorescence at 594 nm. To generate a functional strand incision and increase turn-over this assay is coupled to APE1.

[7] = target: DNA-3-methyladenine glycosylase (Homo sapiens) (UniProt P29372); details: Compound Concentration 10.0 uM, Hit No;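 note: enzyme assay where MPG cuts a quenched duplex DNA oligonucleotide probe, paired with APE1 for strand incision and turnover, read as fluorescence at 594 nm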
Description: Inhibition of MPG by quantifying inhibition of MPG-mediated cleavage and dissociation of quenched duplex DNA oligonucleotides, measured as fluorescence at 594 nm. To generate a functional strand incision and increase turn-over this assay is coupled to APE1.

[8] = target: Endonuclease 8-like 1 (Homo sapiens) (UniProt Q96FI4); details: Compound Concentration 10.0 uM, Hit No;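 note: fluorescence at 594 nm from quenched duplex DNA oligonucleotides released by NEIL1 cleavage and strand separation, reported as reduction of this enzyme activity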
Description: Inhibition of NEIL1 by quantifying inhibition of NEIL1-mediated cleavage and dissociation of quenched duplex DNA oligonucleotides, measured as fluorescence at 594 nm.

[9] = target: T4, Endonuclease III-like protein 1 (Homo sapiens) (UniProt P78549); details: Compound Concentration 10.0 uM, Hit No;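 note: enzyme assay tracking NTHL1 cutting and release of a quenched double-stranded DNA oligo substrate, read as fluorescence at 594 nm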
T4 sequence (whole entry): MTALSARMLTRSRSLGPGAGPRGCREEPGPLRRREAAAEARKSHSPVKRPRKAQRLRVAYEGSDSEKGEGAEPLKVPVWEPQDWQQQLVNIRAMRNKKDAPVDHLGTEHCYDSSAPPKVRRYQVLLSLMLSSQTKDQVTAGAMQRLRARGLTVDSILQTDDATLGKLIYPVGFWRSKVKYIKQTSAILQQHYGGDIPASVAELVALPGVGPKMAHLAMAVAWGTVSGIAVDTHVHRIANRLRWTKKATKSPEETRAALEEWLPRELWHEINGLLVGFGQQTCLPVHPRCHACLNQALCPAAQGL
Description: Inhibition of NTHL1 by quantifying inhibition of NTHL1-mediated cleavage and dissociation of quenched duplex DNA oligonucleotides, measured as fluorescence at 594 nm.

[10] = target: Uracil-DNA glycosylase (Homo sapiens) (UniProt P13051); details: Compound Concentration 10.0 uM, Hit No;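 note: UNG excision on a quenched double-stranded DNA oligo probe, with APE1 added for strand incision and turnover, read as fluorescence at 594 nm as strands separate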
Sequence of Uracil-DNA glycosylase (Homo sapiens) (P13051 whole entry): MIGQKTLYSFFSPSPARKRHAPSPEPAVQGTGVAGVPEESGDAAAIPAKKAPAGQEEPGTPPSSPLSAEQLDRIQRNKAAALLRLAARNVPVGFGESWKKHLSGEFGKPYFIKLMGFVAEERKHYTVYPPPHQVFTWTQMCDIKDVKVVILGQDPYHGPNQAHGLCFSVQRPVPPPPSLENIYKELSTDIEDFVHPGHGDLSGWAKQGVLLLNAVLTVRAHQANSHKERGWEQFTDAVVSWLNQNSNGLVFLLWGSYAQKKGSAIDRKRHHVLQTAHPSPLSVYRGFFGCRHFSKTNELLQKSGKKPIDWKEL
Description: Inhibition of UNG by quantifying inhibition of UNG-mediated cleavage and dissociation of quenched duplex DNA oligonucleotides, measured as fluorescence at 594 nm. To generate a functional strand incision and increase turn-over this assay is coupled to APE1.

Sequence of N-glycosylase/DNA lyase (Homo sapiens) (O15527 whole entry): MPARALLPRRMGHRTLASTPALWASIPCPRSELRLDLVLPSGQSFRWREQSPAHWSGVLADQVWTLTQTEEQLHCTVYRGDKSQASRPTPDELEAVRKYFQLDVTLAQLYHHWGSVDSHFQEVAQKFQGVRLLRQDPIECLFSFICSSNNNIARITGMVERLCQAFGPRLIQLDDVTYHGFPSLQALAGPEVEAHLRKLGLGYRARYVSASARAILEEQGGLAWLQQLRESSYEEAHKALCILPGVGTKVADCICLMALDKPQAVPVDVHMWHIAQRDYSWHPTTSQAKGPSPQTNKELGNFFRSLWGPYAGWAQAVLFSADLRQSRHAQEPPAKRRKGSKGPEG
Sequence of Methyl-CpG-binding domain protein 4 (Homo sapiens) (O95243 whole entry, the tested form may be a part): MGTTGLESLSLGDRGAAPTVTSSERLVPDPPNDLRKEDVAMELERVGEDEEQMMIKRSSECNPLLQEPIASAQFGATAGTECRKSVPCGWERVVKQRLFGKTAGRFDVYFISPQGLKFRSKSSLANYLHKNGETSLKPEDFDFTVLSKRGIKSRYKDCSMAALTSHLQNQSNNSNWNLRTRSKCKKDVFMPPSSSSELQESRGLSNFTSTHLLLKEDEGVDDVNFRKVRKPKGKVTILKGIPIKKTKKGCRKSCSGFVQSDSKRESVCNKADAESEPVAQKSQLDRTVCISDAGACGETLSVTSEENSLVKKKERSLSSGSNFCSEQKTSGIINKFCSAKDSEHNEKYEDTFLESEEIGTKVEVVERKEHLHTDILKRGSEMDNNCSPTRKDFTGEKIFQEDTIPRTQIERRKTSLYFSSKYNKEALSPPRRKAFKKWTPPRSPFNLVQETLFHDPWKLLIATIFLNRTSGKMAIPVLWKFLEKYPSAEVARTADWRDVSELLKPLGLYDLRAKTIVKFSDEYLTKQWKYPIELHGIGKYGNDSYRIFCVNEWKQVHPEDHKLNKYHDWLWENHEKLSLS
Sequence of G/T mismatch-specific thymine DNA glycosylase (Homo sapiens) (Q13569 whole entry): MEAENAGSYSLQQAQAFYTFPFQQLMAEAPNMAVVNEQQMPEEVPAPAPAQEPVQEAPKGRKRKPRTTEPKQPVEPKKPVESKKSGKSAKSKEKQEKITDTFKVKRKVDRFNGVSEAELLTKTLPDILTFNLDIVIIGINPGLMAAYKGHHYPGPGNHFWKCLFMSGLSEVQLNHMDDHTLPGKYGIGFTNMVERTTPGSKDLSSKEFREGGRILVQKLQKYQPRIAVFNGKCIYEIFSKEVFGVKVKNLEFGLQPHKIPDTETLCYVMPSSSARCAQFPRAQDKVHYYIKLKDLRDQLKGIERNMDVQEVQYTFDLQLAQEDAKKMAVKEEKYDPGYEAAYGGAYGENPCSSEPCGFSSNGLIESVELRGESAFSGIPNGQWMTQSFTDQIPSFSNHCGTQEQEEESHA
Sequence of DNA-3-methyladenine glycosylase (Homo sapiens) (P29372 whole entry): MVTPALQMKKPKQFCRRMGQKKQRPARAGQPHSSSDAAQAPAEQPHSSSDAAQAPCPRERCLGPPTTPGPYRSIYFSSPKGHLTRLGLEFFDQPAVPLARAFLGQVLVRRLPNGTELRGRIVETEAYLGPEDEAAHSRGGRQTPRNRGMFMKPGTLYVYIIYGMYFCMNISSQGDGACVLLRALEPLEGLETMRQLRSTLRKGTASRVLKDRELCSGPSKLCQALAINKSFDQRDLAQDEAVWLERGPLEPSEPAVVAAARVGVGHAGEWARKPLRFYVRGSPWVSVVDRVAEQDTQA
Sequence of Endonuclease 8-like 1 (Homo sapiens) (Q96FI4 whole entry): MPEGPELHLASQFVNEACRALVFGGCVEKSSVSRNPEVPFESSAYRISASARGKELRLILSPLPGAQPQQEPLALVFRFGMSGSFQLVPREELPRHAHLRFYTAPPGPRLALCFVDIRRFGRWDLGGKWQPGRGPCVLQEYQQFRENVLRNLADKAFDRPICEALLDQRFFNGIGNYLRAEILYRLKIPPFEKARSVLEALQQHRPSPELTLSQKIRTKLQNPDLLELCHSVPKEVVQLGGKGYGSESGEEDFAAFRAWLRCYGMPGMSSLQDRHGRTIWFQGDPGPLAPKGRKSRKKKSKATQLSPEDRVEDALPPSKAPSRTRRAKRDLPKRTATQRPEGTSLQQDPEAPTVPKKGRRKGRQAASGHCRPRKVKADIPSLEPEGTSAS

inhibition [1] | inhibition [2] | inhibition ([3]; Hit No) | inhibition [4] | inhibition [5] | inhibition ([6]; Hit Yes) | inhibition [7] | inhibition [8] | inhibition [9] | inhibition [10] | inhibition ([6]; Hit No) | inhibition ([3]; Hit Yes) | SMILES
95.3% and 102% | 122% and 125% | -2.94% and 9.96% | 14.7% and 12.7% | 4.71% | 88.5% and 91% | 58.5% and 61.8% | 2.76% and 13.3% | 5.59% | 4.7% and 1.53% | – | – | C[C@H](N)COC(=O)[C@@H](CCCCN)NC(=O)Cc1c(-c2ccc3ccccc3c2)[nH]c2c1ccc1ccccc12
10.9% | 25.9% | -3% | 9.33% | 12.2% | – | -6.62% | 11% | 17.1% | 4.02% | 8.07% | – | NC(=O)c1cc(-c2ccc(S(=O)(=O)[C@H]3CC[C@H](Nc4ccc(C(F)(F)F)cn4)CC3)cc2)ccn1
46% | 20.9% | 5.17% | -0.733% | 7.18% | – | 19.4% | 10.3% | -6.87% | -2.82% | 25.8% | – | Cc1cc(Cn2cnc3c2C[C@@H](C(=O)O)N(C(=O)C(c2ccccc2)c2ccccc2)C3)ccc1N(C)C
41.7% | 36.7% | 16.3% | 15.2% | 7.5% | – | 25.3% | 9.94% | 15.4% | 4.68% | 32.7% | – | N/C(=N\C(=O)c1nc(Cl)c(N)nc1N)NCc1ccccc1
77.3% | 16.2% | 18.2% | 2.06% | 7.83% | – | -8.02% | 0.467% | 2% | -1.57% | 99.6% | – | CSc1ccc(C(=O)/C=C/c2cc(C)c(OC(C)(C)C(=O)O)c(C)c2)cc1
54.4% | 80.5% | – | 8.57% | 16.1% | – | 14.4% | -1.47% | -1.08% | 2.98% | 49% | 88.4% | CC1(C)CCC[C@]2(C)[C@@H](C=O)C(C=O)=CC[C@@H]12
14.2% | 10.9% | 6.41% | 3.51% | 8.49% | – | 14.5% | -2.13% | 29% | -6.48% | 16.5% | – | NS(=O)(=O)c1c(Cl)ccc(NC(=O)Nc2cccc(Cl)c2Cl)c1O
45.7% | 44.3% | 18.7% | 14.7% | 6.31% | – | 26.7% | 1.57% | 7.79% | -4.34% | 36.1% | – | CS(=O)(=O)c1cccc(NC(=O)N(Cc2ccc(C(=O)Nc3nnn[nH]3)cc2)c2ccc(C3CCCCC3)cc2)c1
0.847% | 17% | -1.95% | 9% | 11.5% | – | -1.32% | -0.649% | -9.8% | -8.86% | 17.2% | – | Cc1c(C2=CCN(C(=O)N(C)C(C)C)CC2)nnn1-c1cccnc1F
14.3% | 8.28% | -2.96% | -3.15% | -5.33% | – | 18.5% | -5.33% | 15.4% | -7.92% | 19.8% | – | COc1ccccc1C(=O)Nc1cccc(NC(=O)c2cccc(C)c2)c1
29% | 13.2% | 1.71% | 0.924% | -6.34% | – | 32.6% | 0.00926% | 18.7% | -5.87% | 18.1% | – | CCCCCN1C(=O)C2(COc3cc4c(cc32)OCO4)c2ccccc21 (stereo not given)
49.2% | 35% | -0.567% | 8.06% | 9.31% | – | 47.2% | 4.75% | 13.8% | -1.12% | 47.6% | – | COc1ccc(CCCN2CCC(COC(c3ccccc3)c3ccccc3)CC2)cc1
-9.32% | 18.2% | 3.18% | 5.01% | -6.43% | – | -8.23% | 10.9% | -6.14% | -6.54% | 3% | – | CC(C)c1noc(N2CCC(COc3ccc(-c4ccc(S(C)(=O)=O)cc4)nc3)CC2)n1
7.48% | 6.43% | -4.79% | 6.27% | 9.65% | – | 18.4% | 1.79% | 8.82% | -6.24% | -9.45% | – | Cc1cccc(F)c1C(=O)Nc1cnc(-c2cc3c(cc2Cl)OC(F)(F)O3)cn1
24% | 7.7% | 16.1% | -8.97% | 0.79% | – | 13% | -0.204% | 9.99% | -4.34% | 21.1% | – | CCc1cc(C(C)=O)c(O)cc1OCCCCCC(C)(C)c1nn[nH]n1
-2.58% | 28.9% | -2.44% | 7.5% | 4.42% | – | -8% | -1.83% | 4.12% | -4.71% | 16.6% | – | Cc1nn(C)c2nc(NNC(=O)Nc3cc(Cl)nc(Cl)c3)cc(C(C)C)c12
32.2% | 30.5% | 36.3% | 17.7% | -0.636% | – | -0.565% | 4.9% | 33.6% | -0.0242% | 25.9% | – | CC(C)(C)C1CCc2c(sc(NC(=O)c3ccco3)c2C(=O)O)C1 (stereo not given)
19.3% | 19.8% | 0.34% | -3.15% | 3.49% | – | 7.88% | -0.435% | 20.4% | -2.63% | 11% | – | COc1c(C(=O)/C=C/c2ccccc2)c(O)c(OC)c2occc12
6.71% | 4.63% | 4.23% | 5.26% | 6.75% | – | 3.92% | 0.982% | -3.21% | -6.05% | 17.2% | – | Cc1cc(C)c(N)c(C#Cc2cccc(F)c2)n1
8.44% | 18.5% | 0.0304% | -0.35% | 0.438% | – | 7.82% | -1.77% | 12.1% | -6.98% | 12.4% | – | Cc1cccc(NC(=O)CN2CCC(c3ccccn3)CC2)c1
